In brackets after ≈: the same amount, converted by molar mass. Blank lines part the entries; values can stand above or below the molecule they belong to.
Assays:
[1] = target: Vascular endothelial growth factor receptor 2 (Homo sapiens, UniProt P35968)
Description: Inhibition of human VEGFR2

[2] = target: Tyrosine-protein kinase Lck (Homo sapiens, UniProt P06239); assay: Inhibition of LCK
[3] = target: Protein kinase C alpha type (Homo sapiens, UniProt P17252); assay: Inhibition of PKCalpha
[4] = Clearance in BALB/c mouse at 5 mg/kg, iv; type: ADME, organism-based; parameters: dose 5 mg/kg, route intravenous; conditions: in vivo
[5] = Total AUC in BALB/c mouse at 30 mg/kg, po; type: ADME, organism-based; parameters: time AUCmax, dose 30 mg/kg, route oral; conditions: in vivo
[6] = Volume of distribution at steady state in BALB/c mouse at 5 mg/kg, iv; type: ADME, organism-based; parameters: dose 5 mg/kg, route intravenous; conditions: in vivo, read-out: Vdss
[7] = Total AUC in BALB/c mouse at 5 mg/kg, iv; type: ADME, organism-based; parameters: time AUCmax, dose 5 mg/kg, route intravenous; conditions: in vivo
[8] = target: Receptor tyrosine-protein kinase erbB-2 (Homo sapiens, UniProt P04626); assay: Inhibition of HER2
[9] = target: Epidermal growth factor receptor (Homo sapiens, UniProt P00533); assay: Inhibition of EGFR
Cytochrome P450 3A4 = Cytochrome P450 3A4 (Homo sapiens, UniProt P08684); assay: Inhibition of CYP3A4; type: ADME
hERG (KCNH2) = hERG (KCNH2) (Homo sapiens, UniProt Q12809); assay: Inhibition of human ERG at 10 uM by patch clamp method
[10] = Oral bioavailability in BALB/c mouse at 30 mg/kg; conditions: in vivo
[11] = Mean resident time in BALB/c mouse at 5 mg/kg, iv; type: ADME, organism-based; parameters: dose 5 mg/kg, route intravenous; conditions: in vivo
[12] = target: T1, Tyrosine-protein kinase JAK3 (Homo sapiens, UniProt P52333); assay: Inhibition of JAK3
T1 sequence (P52333 whole entry): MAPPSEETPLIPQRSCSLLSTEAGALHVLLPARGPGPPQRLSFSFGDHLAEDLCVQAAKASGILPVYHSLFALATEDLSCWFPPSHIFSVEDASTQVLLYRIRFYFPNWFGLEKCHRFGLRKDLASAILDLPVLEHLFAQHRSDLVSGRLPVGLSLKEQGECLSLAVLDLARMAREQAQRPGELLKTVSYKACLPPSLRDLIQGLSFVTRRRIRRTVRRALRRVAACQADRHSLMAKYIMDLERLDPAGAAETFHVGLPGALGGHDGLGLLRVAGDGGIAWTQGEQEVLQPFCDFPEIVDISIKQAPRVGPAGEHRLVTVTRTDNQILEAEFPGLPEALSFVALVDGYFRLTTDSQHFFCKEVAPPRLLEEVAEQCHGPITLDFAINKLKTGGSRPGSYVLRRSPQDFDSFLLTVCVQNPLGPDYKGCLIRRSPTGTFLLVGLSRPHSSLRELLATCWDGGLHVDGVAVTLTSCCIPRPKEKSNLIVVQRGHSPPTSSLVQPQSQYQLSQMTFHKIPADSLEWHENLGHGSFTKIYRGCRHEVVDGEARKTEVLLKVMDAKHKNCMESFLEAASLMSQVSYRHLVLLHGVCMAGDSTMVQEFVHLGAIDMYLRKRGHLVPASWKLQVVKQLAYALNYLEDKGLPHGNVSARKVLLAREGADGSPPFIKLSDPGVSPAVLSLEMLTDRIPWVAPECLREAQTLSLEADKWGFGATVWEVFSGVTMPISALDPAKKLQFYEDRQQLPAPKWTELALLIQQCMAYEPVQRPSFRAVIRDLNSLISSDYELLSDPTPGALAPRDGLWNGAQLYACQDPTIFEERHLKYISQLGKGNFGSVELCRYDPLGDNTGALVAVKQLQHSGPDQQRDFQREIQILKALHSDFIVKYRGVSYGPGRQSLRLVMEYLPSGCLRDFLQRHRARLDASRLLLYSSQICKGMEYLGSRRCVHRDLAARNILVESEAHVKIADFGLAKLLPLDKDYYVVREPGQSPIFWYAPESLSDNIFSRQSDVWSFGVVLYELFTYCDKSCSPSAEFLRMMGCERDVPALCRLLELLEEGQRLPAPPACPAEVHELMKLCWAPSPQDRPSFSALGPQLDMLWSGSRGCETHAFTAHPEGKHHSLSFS

[13] = target: Platelet-derived growth factor receptor beta (Homo sapiens, UniProt P09619); assay: Inhibition of PDGFRbeta
[14] = Half life in BALB/c mouse at 30 mg/kg, po; type: ADME, organism-based; parameters: dose 30 mg/kg, route oral; conditions: in vivo
[15] = Half life in BALB/c mouse at 5 mg/kg, iv; type: ADME, organism-based; parameters: dose 5 mg/kg, route intravenous; conditions: in vivo
[16] = target: Fibroblast growth factor receptor 1 (Homo sapiens, UniProt P11362); assay: Inhibition of FGFR1
[17] = AUC in mouse at 50 mg/kg, po after 4 hrs; type: ADME, organism-based; parameters: time < 4 hr, dose 50 mg/kg, route oral; conditions: plasma
NCI-N87 = assay: Antitumor activity against human N87 cells; type: functional, cell-based
HUVEC [18] = assay: Antiproliferative activity against VEGF-induced HUVEC; type: functional, cell-based; conditions: Homo sapiens
L2987 [19] = assay: Antitumor activity against po dosed human L2987 cells xenografted mouse after 24 hrs; type: functional
[20] = target: Voltage-gated inwardly rectifying potassium channel KCNH2 (Homo sapiens, UniProt Q12809); assay: Inhibition of human ERG by patch clamp method
[21] = Tmax in BALB/c mouse at 30 mg/kg, po; conditions: in vivo
[22] = Aqueous solubility at pH 2; type: physicochemical; conditions: buffer
[23] = target: Vascular endothelial growth factor receptor 2 (Mus musculus, UniProt P35918); assay: Inhibition of mouse Flk1
[24] = target: Vascular endothelial growth factor receptor 1 (Homo sapiens, UniProt P17948); assay: Inhibition of VEGFR1
[25] = Cmax in human L2987 cells xenografted mouse at 7.5 mg/kg, po after 24 hrs; type: ADME, organism-based; parameters: dose 7.5 mg/kg, route oral; conditions: in vivo
Rattus norvegicus = assay: AUC in rat at 30 mg/kg; type: ADME, organism-based, Plasma; parameters: dose 30 mg/kg; conditions: in vivo
L2987 [26] = assay: Antitumor activity against human L2987 cells xenografted mouse at 15 mg/kg, po after 4 days; type: functional
[27] = Antitumor activity against human H1993 cells; type: functional, cell-based; conditions: NCI-H1993
[28] = Cmax in human L2987 cells xenografted mouse at 15 mg/kg, po after 24 hrs; type: ADME, organism-based; parameters: dose 15 mg/kg, route oral; conditions: in vivo
L2987 [29] = assay: Antitumor activity against human L2987 cells xenografted mouse at 7.5 mg/kg, po after 4 days; type: functional
Mus musculus [30] = assay: Toxicity in human L2987 cells xenografted mouse assessed as morbidity at 15 mg/kg, po; type: organism-based; parameters: dose 15 mg/kg, route oral; conditions: in vivo
[31] = AUC in human L2987 cells xenografted mouse at 15 mg/kg, po after 24 hrs; type: ADME, organism-based; parameters: time < 24 hr, dose 15 mg/kg, route oral; conditions: in vivo
Mus musculus [32] = assay: Toxicity in human L2987 cells xenografted mouse assessed as morbidity at 7.5 mg/kg, po; type: organism-based; parameters: dose 7.5 mg/kg, route oral; conditions: in vivo
[33] = Aqueous solubility at pH 6.5; type: physicochemical; conditions: buffer
HUVEC [34] = assay: Antiproliferative activity against bFGF-induced HUVEC; type: functional, cell-based; conditions: Homo sapiens
Mus musculus [35] = assay: Toxicity in human L2987 cells xenografted mouse assessed as weight loss at 15 mg/kg, po; type: organism-based; parameters: dose 15 mg/kg, route oral; conditions: in vivo
[36] = Antitumor activity against human GTL16 cells; type: functional, cell-based; conditions: GTL 16
L2987 [37] = assay: Antitumor activity against human L2987 cells xenografted in mouse; type: functional, cell-based
[38] = Oral bioavailability in rat at 30 mg/kg; type: ADME, organism-based; conditions: in vivo
Mus musculus [39] = assay: Toxicity in human L2987 cells xenografted mouse assessed as weight loss at 7.5 mg/kg, po; type: organism-based; parameters: dose 7.5 mg/kg, route oral; conditions: in vivo
[40] = AUC in human L2987 cells xenografted mouse at 7.5 mg/kg, po after 24 hrs; type: ADME, organism-based; parameters: time < 24 hr, dose 7.5 mg/kg, route oral; conditions: in vivo

Cytochrome P450 3A4, sequence (P08684 whole entry): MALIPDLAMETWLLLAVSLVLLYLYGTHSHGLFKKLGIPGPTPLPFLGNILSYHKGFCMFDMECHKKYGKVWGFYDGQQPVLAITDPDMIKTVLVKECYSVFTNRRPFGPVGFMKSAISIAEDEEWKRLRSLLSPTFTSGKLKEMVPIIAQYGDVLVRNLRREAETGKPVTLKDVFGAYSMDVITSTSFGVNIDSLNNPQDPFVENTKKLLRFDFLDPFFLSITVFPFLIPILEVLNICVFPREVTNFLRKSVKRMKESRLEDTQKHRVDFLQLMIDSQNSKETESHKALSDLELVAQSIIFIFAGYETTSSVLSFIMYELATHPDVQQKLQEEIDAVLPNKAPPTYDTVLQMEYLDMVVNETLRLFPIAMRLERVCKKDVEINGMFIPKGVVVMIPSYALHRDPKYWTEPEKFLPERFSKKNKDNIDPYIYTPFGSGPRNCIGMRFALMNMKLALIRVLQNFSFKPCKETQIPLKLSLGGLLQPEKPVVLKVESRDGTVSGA
hERG (KCNH2), sequence (Q12809 whole entry): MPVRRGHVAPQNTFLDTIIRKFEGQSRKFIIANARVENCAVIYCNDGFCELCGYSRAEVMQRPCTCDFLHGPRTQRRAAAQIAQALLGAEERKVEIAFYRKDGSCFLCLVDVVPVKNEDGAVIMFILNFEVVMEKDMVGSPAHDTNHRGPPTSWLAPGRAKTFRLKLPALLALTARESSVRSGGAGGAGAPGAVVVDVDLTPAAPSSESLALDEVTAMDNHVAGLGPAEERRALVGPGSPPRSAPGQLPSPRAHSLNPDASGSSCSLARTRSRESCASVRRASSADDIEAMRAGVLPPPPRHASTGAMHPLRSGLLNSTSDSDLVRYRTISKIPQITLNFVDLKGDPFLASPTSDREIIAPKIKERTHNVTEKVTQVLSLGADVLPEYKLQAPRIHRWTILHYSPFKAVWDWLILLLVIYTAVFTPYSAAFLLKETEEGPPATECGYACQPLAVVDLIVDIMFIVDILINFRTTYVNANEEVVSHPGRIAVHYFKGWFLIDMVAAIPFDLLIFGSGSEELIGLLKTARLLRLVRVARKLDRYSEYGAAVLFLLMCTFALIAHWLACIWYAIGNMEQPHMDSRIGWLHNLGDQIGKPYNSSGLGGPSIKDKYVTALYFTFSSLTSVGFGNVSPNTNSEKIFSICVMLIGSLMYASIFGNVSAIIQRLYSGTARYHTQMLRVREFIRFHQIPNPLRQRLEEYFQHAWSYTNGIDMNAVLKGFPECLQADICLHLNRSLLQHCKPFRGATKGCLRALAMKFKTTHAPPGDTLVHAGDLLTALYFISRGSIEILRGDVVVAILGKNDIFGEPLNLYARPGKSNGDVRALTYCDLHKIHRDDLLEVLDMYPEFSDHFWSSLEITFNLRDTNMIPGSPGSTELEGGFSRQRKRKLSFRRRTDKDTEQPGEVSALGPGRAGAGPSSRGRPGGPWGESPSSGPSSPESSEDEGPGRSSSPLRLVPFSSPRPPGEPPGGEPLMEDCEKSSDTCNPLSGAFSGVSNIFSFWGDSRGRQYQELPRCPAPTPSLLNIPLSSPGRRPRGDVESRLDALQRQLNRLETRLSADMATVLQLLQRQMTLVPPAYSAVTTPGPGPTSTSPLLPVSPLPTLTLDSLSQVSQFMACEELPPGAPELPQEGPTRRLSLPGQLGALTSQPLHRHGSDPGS
Receptor tyrosine-protein kinase erbB-2, sequence (P04626 whole entry): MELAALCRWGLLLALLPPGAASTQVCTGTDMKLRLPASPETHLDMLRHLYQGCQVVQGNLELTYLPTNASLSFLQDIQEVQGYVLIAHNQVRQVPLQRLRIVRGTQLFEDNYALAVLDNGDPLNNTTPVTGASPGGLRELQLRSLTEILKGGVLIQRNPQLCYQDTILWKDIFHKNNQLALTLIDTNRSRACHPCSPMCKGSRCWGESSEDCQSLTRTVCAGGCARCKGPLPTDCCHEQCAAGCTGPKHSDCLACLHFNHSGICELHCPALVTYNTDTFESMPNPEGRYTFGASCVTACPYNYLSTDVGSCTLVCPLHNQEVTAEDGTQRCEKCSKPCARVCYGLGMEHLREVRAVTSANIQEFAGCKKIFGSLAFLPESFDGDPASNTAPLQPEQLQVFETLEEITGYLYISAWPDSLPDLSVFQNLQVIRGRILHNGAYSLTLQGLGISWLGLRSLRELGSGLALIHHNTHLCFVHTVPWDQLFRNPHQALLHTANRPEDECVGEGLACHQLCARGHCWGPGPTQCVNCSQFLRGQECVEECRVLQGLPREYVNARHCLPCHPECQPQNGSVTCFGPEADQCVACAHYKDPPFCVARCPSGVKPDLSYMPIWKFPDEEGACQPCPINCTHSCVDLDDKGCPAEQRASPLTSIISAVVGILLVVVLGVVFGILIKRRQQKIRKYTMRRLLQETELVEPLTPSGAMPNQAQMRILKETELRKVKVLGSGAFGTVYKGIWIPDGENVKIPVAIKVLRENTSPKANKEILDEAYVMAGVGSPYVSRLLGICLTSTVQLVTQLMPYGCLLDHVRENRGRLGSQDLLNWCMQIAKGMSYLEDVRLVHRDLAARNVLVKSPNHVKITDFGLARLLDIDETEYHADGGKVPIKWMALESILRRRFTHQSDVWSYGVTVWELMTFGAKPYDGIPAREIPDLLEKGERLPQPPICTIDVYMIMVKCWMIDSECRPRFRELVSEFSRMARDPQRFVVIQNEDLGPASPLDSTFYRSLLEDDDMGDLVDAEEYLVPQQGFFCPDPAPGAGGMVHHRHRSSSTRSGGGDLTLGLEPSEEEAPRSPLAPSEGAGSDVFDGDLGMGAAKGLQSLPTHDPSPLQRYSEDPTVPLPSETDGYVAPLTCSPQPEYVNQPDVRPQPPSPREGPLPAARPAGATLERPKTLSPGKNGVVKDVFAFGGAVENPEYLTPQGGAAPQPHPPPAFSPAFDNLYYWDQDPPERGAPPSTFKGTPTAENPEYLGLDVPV
Fibroblast growth factor receptor 1, sequence (P11362 whole entry): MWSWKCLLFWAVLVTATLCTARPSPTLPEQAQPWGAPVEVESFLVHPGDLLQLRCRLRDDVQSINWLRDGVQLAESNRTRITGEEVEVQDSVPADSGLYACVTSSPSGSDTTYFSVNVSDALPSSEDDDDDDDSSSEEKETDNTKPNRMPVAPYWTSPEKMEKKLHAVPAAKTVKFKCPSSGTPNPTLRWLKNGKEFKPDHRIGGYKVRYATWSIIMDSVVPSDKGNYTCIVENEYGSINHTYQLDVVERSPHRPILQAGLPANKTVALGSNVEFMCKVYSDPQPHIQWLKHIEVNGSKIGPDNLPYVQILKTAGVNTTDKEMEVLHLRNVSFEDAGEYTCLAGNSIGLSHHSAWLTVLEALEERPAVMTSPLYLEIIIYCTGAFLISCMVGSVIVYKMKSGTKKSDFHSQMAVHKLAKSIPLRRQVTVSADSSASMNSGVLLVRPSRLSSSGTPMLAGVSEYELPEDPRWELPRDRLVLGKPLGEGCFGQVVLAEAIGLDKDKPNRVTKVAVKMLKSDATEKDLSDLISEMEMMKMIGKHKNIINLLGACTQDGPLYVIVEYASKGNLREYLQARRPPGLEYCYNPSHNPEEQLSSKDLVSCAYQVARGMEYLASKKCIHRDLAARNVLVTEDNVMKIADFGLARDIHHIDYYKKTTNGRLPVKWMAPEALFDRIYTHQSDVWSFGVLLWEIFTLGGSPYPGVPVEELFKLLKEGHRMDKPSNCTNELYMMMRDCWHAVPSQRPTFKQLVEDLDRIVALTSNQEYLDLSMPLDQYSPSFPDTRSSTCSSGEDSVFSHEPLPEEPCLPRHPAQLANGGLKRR
Platelet-derived growth factor receptor beta, sequence (P09619 whole entry): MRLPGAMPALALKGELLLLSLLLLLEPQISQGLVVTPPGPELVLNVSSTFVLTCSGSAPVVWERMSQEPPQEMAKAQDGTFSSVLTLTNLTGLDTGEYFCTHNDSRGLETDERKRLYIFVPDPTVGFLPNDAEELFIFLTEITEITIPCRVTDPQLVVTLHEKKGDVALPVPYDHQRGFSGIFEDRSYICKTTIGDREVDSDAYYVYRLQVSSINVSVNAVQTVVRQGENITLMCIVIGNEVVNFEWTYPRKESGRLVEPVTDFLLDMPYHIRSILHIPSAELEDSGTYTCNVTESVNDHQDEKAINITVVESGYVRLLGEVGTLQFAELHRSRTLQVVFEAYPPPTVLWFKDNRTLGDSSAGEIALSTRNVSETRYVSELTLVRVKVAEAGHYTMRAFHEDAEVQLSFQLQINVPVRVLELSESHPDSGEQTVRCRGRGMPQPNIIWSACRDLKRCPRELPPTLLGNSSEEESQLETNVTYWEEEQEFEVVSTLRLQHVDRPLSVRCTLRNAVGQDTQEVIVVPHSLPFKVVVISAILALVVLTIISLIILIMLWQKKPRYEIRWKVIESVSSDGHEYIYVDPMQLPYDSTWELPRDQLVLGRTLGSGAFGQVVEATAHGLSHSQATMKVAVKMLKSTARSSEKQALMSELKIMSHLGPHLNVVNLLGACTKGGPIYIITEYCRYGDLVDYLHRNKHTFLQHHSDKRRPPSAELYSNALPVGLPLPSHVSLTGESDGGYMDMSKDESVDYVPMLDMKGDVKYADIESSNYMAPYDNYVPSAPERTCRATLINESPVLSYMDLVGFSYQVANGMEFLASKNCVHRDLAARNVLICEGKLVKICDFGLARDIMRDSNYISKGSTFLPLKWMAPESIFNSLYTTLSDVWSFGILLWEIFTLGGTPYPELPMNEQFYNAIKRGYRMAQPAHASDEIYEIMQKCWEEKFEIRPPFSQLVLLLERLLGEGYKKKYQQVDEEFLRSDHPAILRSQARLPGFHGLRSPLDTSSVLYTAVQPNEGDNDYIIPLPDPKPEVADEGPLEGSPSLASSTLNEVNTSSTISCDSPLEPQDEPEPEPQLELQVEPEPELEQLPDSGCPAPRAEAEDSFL

Compound: Cc1nnc(-c2cn3ncnc(Nc4cnc5[nH]ccc5c4)c3c2C(C)C)o1
IC50 [1]: 31 nM
IC50 [2]: 185 nM
IC50 [3]: > 50000 nM
clearance [4]: 18 mL/min/kg
AUC [5]: 21.7 µM·h
Vd [6]: 1.9 L/kg
AUC [7]: 12.4 µM·h
IC50 [8]: 500 nM
IC50 [9]: 150 nM
IC50 (Cytochrome P450 3A4): > 40000 nM
inhibition at 10 µM (hERG (KCNH2)): 29%
bioavailability [10]: 29%
MRT [11]: 1.7 h
IC50 [12]: > 50000 nM
IC50 [13]: 389 nM
half-life [14]: 4.5 h
half-life [15]: 1.2 h
IC50 [16]: 61 nM

AUC at 4 h [17]: 136 µM·h
Compound: Cc1cc2c(F)c(Oc3ncnn4cc(OC[C@@H](C)O)c(C)c34)ccc2[nH]1 [BRIVANIB]

IC50 (NCI-N87): > 10000 nM
IC50 [1]: 25 nM
IC50 [2]: > 2000 nM
IC50 [3]: > 50000 nM
clearance [4]: 8.5 mL/min/kg
AUC [5]: 182 µM·h
Vd [6]: 1.4 L/kg
AUC [7]: 25 µM·h
Tmax [21]: 0.5 h
solubility [22]: 400 µg/mL (≈ 1030 µM)
IC50 [23]: 53 nM
IC50 [24]: 268 nM
IC50 [8]: > 5000 nM
Cmax [25]: 1030 nM
AUC (Rattus norvegicus): 287 µM·h
IC50 [9]: > 1000 nM
IC50 (Cytochrome P450 3A4): 11500 nM
IC50 [27]: > 10000 nM
Cmax [28]: 2640 nM
AUC at 24 h [31]: 30 µM·h
bioavailability [10]: > 100%
solubility [33]: 2.8 µg/mL (≈ 7.21 µM)
MRT [11]: 2.7 h
IC50 [36]: > 10000 nM
IC50 [12]: > 50000 nM
IC50 (L2987 [37]): > 2500 nM
bioavailability [38]: 68%
IC50 [13]: > 2000 nM
half-life [14]: 2.5 h
half-life [15]: 2.9 h
IC50 [16]: 78 nM
AUC at 24 h [40]: 11 µM·h
Compound: Cc1cc2cc(Nc3ncnn4cc(-c5nnc(C)o5)c(C(C)C)c34)cnc2[nH]1
IC50 (HUVEC [18]): 13 nM
Activity (L2987 [19]): Dose-dependent effect
minimal effective dose (L2987 [19]; read-out: MED): 7.5 mg/kg
IC50 [20]: 6600 nM
Activity (L2987 [26]): >=50%
Activity (L2987 [29]): >=50%
Activity (Mus musculus [30]): Non-toxic
inhibition at 10 µM (hERG (KCNH2)): 64%
Activity (Mus musculus [32]): Non-toxic
IC50 (HUVEC [34]): 138 nM
Activity (Mus musculus [35]): Non-toxic
Activity (Mus musculus [39]): Non-toxic

clearance [4]: 4.5 mL/min/kg
AUC [5]: 272 µM·h
Vd [6]: 1.2 L/kg
AUC [7]: 46 µM·h
IC50 (Cytochrome P450 3A4): 6400 nM
bioavailability [10]: 99%
MRT [11]: 4.3 h
half-life [14]: 2.8 h
half-life [15]: 2.8 h
Compound: CNc1nnc(-c2cn3ncnc(Nc4cnc5[nH]c(C)cc5c4)c3c2C(C)C)o1

AUC at 4 h [17]: 11.1 µM·h
Compound: Cc1c(OC[C@@H](C)O)cn2ncnc(Oc3cnc4[nH]ccc4c3F)c12

AUC at 4 h [17]: 29.6 µM·h
Compound: Cc1cc2c(F)c(Oc3ncnn4cc(OC[C@@H](C)O)c(C)c34)cnc2[nH]1
